Test [1] has as its system EAE. Particulars: NBQX treatment in EAE; cited from earlier work.
The subject of test [2] is adoptive-transfer EAE in female SJL mice. As to the kind of experiment: Adoptive-transfer EAE, treatment with amlodipine (Example 1). Format: in vivo, mouse. Particulars: two representative animals per group at sampling; clinical index 0-5; control group 2.8. How it is done:
FIG. 1 illustrates the clinical course of adoptive-transfer EAE and the effect of treatment with amlodipine. SJL mice were injected with 3×10^7 MBP-activated cells. Starting from Day 5 post-immunization, mice were treated with amlodipine (30 μg as one daily subcutaneous injection) or vehicle (PBS), until Day 13 (Day 9 of treatment). Data represent mean±s.e.m. differences, at respective time-points, between the vehicle-treated group and the amlodipine-treated group. *=p<0.05; **=p<0.01 (students' unpaired, two-tailed t-test); n=8 per group. Induction of Experimental Autoimmune Encephalomyelitis (EAE). Adoptive-transfer EAE was induced in female SJL mice as described ([…] et al., 1998). In brief, lymph node cells were obtained 10 days after myelin basic protein/Complete Freund's Adjuvant immunization. Cells were cultured for 4 days with 50 μg/ml of myelin basic protein, then 3×10^7 cells/mouse were injected into syngeneic mice via tail veins. Onset of disease occurred after 7-9 days. Animals were graded according to a standard clinical index (0-5). Five days after immunization, animals began treatments with one daily injection of 200 μl of vehicle (PBS), or 30 μg of amlodipine in 200 μl of PBS. Neuropathology. At selected time-points, mice from the control and treated groups were perfused with PBS or glutaraldehyde, and the CNS was prepared for frozen or 1-μm epoxy sections, respectively. […]

For test [3], the system named is AT-EAE in female SJL/J mice. As to the kind of experiment: Adoptive-transfer EAE (AT-EAE), treatment with bepridil or nitrendipine (Example 2). Format: in vivo, mouse. Particulars: for difference in average disease scores between vehicle and bepridil groups: bepridil 3 mg/kg from day 3 p.t. (n=14 vs 15); for average difference in disease scores vs vehicle: average over days 13-20 p.t.

The mark [4] stands for this setting: bepridil 3 mg/kg s.c. daily from day 0.

For the compound `NS(=O)(=O)c1cccc2c1c([N+](=O)[O-])cc1[nH]c(=O)c(=O)[nH]c12` [NBQX, 1,2,3,4-tetrahydro-6-nitro-2,3-dioxo-benzoquinoxaline-7-sulfonamide], in test [1], the “course of disease, loss of oligodendrocytes and axonal damage” value was “significantly ameliorated the course of the disease and reduced loss of oligodendrocytes and axonal damage”.
On to `CCOC(=O)C1=C(COCCN)NC(C)=C(C(=O)OC)C1c1ccccc1Cl` (stereo not shown) [amlodipine, 3-ethyl-5-methyl-2-(2-aminoethoxymethyl)-4-(2-chlorophenyl)-1,4-dihydro-6-methyl-3,5-pyridinedicarboxylate], for which the average clinical score in test [2] was 1.3.
Take `CC(C)COCC(CN(Cc1ccccc1)c1ccccc1)N1CCCC1` (stereo not shown) [bepridil]: the “difference in average disease scores between vehicle and bepridil groups” value is recorded as 1.07 points in test [3] (day 13 p.t.), 1.20 points in test [3] (day 14 p.t.), 0.99 points in test [3] (day 15 p.t.) and 1.18 points in test [3] (day 16 p.t.). In addition, the “average difference in disease scores between vehicle and bepridil groups” value in test [3] (bepridil 3 mg/kg from day 3 p.t., average over days 13-16 p.t.) is −1.11±0.05 points. Further, in test [3] (setting [4]), the “delay of overt disease onset compared with vehicle” value was “more than 5 days”. Also, the “average difference in disease scores vs vehicle” value is 1.66±0.06 points in test [3] (setting [4]) and −1.66±0.06 points in test [3] (bepridil 3 mg/kg s.c. daily from day 0, listed as Bepridil). For the same compound, the “reduction of daily average disease score vs vehicle” value in test [3] (bepridil 3 mg/kg s.c. daily from day 0, day 13 p.t.) was 1.8 points; in test [3] (bepridil 3 mg/kg s.c. daily from day 0, day 14 p.t.), 2.0 points; in test [3] (bepridil 3 mg/kg s.c. daily from day 0, day 15 p.t.), 1.45 points; in test [3] (bepridil 3 mg/kg s.c. daily from day 0, day 16 p.t.), 1.65 points; in test [3] (bepridil 3 mg/kg s.c. daily from day 0, day 17 p.t.), 1.60 points; in test [3] (bepridil 3 mg/kg s.c. daily from day 0, day 18 p.t.), 1.60 points. Besides, the “reduction of daily average disease score vs vehicle” value in test [3] (bepridil 3 mg/kg s.c. daily from day 0, day 19 p.t.) is recorded as 1.70 points; in test [3] (bepridil 3 mg/kg s.c. daily from day 0, day 20 p.t.), 1.5 points.
As to `CCOC(=O)C1=C(C)NC(C)=C(C(=O)OC)C1c1cccc([N+](=O)[O-])c1` (stereo not shown) [nitrendipine, ethyl methyl-1,4-dihydro-2,6-dimethyl-4-(m-nitrophenyl)-3,5-pyridinedicarboxylate], in test [3] (nitrendipine 2.5 mg/kg s.c. daily from day 0, average over days 15-20 p.t.), the “average amelioration of clinical impairment vs vehicle” value is listed as −1.77±0.11 points. The “amelioration of clinical impairment (disability score) vs vehicle” value in test [3] (nitrendipine 2.5 mg/kg s.c. daily from day 0, day 15 p.t.) was 1.5 points; in test [3] (nitrendipine 2.5 mg/kg s.c. daily from day 0, day 16 p.t.) it was 1.7 points; in test [3] (nitrendipine 2.5 mg/kg s.c. daily from day 0, day 17 p.t.), 1.9 points; in test [3] (nitrendipine 2.5 mg/kg s.c. daily from day 0, day 18 p.t.), 2.25 points; in test [3] (nitrendipine 2.5 mg/kg s.c. daily from day 0, day 19 p.t.) it was 1.65 points; in test [3] (nitrendipine 2.5 mg/kg s.c. daily from day 0, day 20 p.t.) it was 1.6 points.

The values above are taken from US7816384B2, “Method for treating a demyelinating condition” (priority 2000, dated 2010).
